Reference: US20130315920A1, “Cross Protective Epitopes of Aspergillus Fumigatus and Candida Albicans” (Cell Medica Limited, priority 2010, published 2013)

Assays:
HLA-DRB1*03 = experiment: HLA restriction with peptide-pulsed partially matched LCL (IFN-γ ELISA); type: cell-based, human; settings: 10^−3 to 1 ug/ml peptide
Description: (§1) To evaluate the utility of the Crf1 p41 epitope for potential clinical application, we defined the HLA restriction of Crf1 p41-specific CD4^+ T clones from different donors by stimulation with peptide-pulsed partially matched LCLs. […] As presentation of the Crf1 p41 peptide could also be mediated by other MHC class II alleles, we verified the HLA restriction by stimulation of PBMC from additional donors.
(§2) HLA restriction was analyzed with partially matched allogeneic EBV-lymphoblastoid cell lines (LCL) (provided by Patricia Comoli and Inge Jedema) pulsed with 10^−3 to 1 ug/ml peptide using IFN-γ ELISA.

HLA-DRB1*13 = experiment: as above; type: cell-based, human; settings: for Presentation / binding by HLA-DRB1*13: 10^−3 to 1 ug/ml peptide
Description: as §1, §2

HLA-DRB1*04 = experiment: as above; type: cell-based, human; settings: 10^−3 to 1 ug/ml peptide
Description: as §1, §2

CD4^+ spleen cells = experiment: Proliferation assay of purified CD4+ spleen cells ([3H]thymidine); type: cell-based; settings: mice untreated or vaccinated with A. fumigatus or C. albicans; 5 μg/mL peptide, 3 days
Description: A. fumigatus Crf1 protein mediates cross-protection to C. albicans. Mice were injected intranasally with resting A. fumigatus conidia 14 days before infection, or with purified Crf1 protein and murine CpG oligodeoxynucleotide 1862 14, 7 and 3 days before intragastric infection with C. albicans. Note (a) the reduced inflammatory cell recruitment and acanthosis in mice vaccinated with A. fumigatus conidia or Crf1 protein as opposed to control mice shown in FIG. 5a and c and (b) the increase in protective TH1 and regulatory T-cell transcription factors and cytokine levels. […] The results are expressed as mean cpm±SEM of triplicate cultures. […]
DC (1×10^5) and CD4^+ T-cells (5×10^5) were purified from spleens of mice untreated or vaccinated with A. fumigatus or C. albicans, by magnetic separation of MicroBeads (Miltenyi Biotec) and cocultured in round-bottom, 96-well plates in 200 μl complete medium, with and without anti-CD3ε antibody (clone 145-2C11; BD PharMingen), heat-inactivated Aspergillus or Candida (at a cell:fungi ratio of 2:1), 5 μg/mL of Crf1 p41 peptide. […] Incorporation into cellular DNA was measured by liquid scintillation counting. The results are expressed as mean cpm±SEM of triplicate cultures.

PBMC = experiment: In vitro expansion of Crf1 p41-specific T-cell lines from PBMC; type: cell-based, human
Description: Cross-reactive Crf1 p41-specific T-cells show a diverse T-cell receptor (TCR) Vβ repertoire, multiple MHC class II restriction and high proliferative capacity. (a) The TCR Vβ repertoire of p41-specific CD4^+ T-cell clones is divers in different donors. TCR chains were determined by flowcytometry, PCR and/or nucleotide sequence analysis. *TCRs differ on the level of nucleotide sequence. Nomenclature is according to Wei et al^53. (b) The Crf1 p41 epitope can be presented by HLA-DRB1*03, 04 and 13 and allows cross-recognition between HLA-DRB1*03 and 13. The HLA restriction of Crf1 p41-specific T-cell clones from 5 different donors was determined by stimulation with peptide-pulsed unmatched or partially matched LCL. IFN-γ values are given after subtraction of the negative control. (c) Crf1 p41-specific T-cells are not terminally differentiated and can be rapidly expanded in vitro. […] T-cells were restimulated with autologous peptide-pulsed monocytes on day 7 and culture medium was supplemented with IL-2, IL-7 and IL-15 (representative experiments, n≧3).
For T-cell expansion, 1×10^7 PBMC were stimulated with 5 μg/ml peptide in the presence of 5 U/ml IL-2. On d7, T-cells were restimulated with autologous peptide-pulsed monocytes at a R:S ratio of 5:1 and 10 ng/ml IL-7 and IL-15 (R&D systems) were supplemented every other day until d14.
The TCR Vβ repertoire was analyzed flowcytometrically (IOTest Beta Mark Kit, Beckman Coulter), by PCR^43 and sequence analysis^44. A PE-conjugated Crf1 p41-specific HLA-DRB1*0401 MHC class II tetramer was used according to the manufacturers' instructions (Beckman Coulter).

C. albicans = experiment: Peptide-specific T-cell clones stimulated with inactivated C. albicans yeast; type: cell-based, Candida albicans
Text: A. fumigatus Crf1 p41-specific T-cell clones are cross-reactive to C. albicans and can be activated by different clinical isolates of both fungi. (a) All A. fumigatus Crf1 p41-specific T-cell clones from different donors respond to stimulation with inactivated C. albicans yeast. IFN-γ values are given after subtraction of the negative control. Shown is 1 clone per antigen and donor (representative experiments, n≧3). (b) A. fumigatus Crf1 p41-specific T-cell clones respond to different inactivated clinical isolates of germinating A. fumigatus conidia and C. albicans yeast.
T-cell cloning was performed as described in below. T-cell clones were stimulated either with mature peptide-pulsed (2.5 μg/ml) or Crf1 mRNA-transfected DC, immature DC incubated for 24 h with A. fumigatus cell extract (20 μg/ml) in the presence of cytokine maturation cocktail or immature DC incubated for 24 h with inactivated A. fumigatus or C. albicans fungus (multiplicity of infection 3) in a R:S ratio of 5:1.
Fungal extracts were generated as described^48 and protein content was measured by Bradford protein assay (Perbio Science) according to the manufacturers' instructions. For inactivated fungus Aspergillus conidia were inoculated in growth medium^49 and cultured for 0, 4, 8 or 12 h. Candida species were cultured for 24 h. Fungi were inactivated with 70% ethanol. Ethanol-inactivated fungi and extracts were validated for sterility by subculturing on Sabouraud dextrose agar.

Sequence: HTYTIDWTKDAVTWS (Peptide found in the Crf1 protein of Aspergillus fumigatus) [p41, Crf1 aa 161-175]
- Presentation / binding by HLA-DRB1*03 (HLA-DRB1*03): presentation of the Crf1 p41 is mediated by HLA-DRB1*03, 04 and 13
- Presentation / binding by HLA-DRB1*03 (HLA-DRB1*03; listed as HTYTIDWTKDAVTWS): has been shown to bind to HLA-DRB1*03, HLA-DRB1*13 and HLA-DRB1*04
- Cross-recognition between HLA-DRB1*03 and 13 (HLA-DRB1*13): in some instances DRB1*03-restricted TCRs might be able to recognize p41 peptide presented by DRB1*13 and vice versa
- Presentation / binding by HLA-DRB1*13 (HLA-DRB1*13): presentation of the Crf1 p41 is mediated by HLA-DRB1*03, 04 and 13
- Presentation / binding by HLA-DRB1*13 (HLA-DRB1*13; listed as HTYTIDWTKDAVTWS): has been shown to bind to HLA-DRB1*03, HLA-DRB1*13 and HLA-DRB1*04
- Presentation / binding by HLA-DRB1*04 (HLA-DRB1*04): presentation of the Crf1 p41 is mediated by HLA-DRB1*03, 04 and 13
- Presentation / binding by HLA-DRB1*04 (HLA-DRB1*04; listed as HTYTIDWTKDAVTWS): has been shown to bind to HLA-DRB1*03, HLA-DRB1*13 and HLA-DRB1*04
- Antigen-specific proliferation of CD4+ spleen cells (CD4^+ spleen cells): cross-protection could be mediated by T-cells recognizing the same epitope p41
- Frequency of antigen-specific cells by HLA-DRB1*04 restricted tetramer (median) (PBMC; after 14 days expansion): 50.6%
- Frequency of antigen-specific cells by HLA-DRB1*04 restricted tetramer (range) (PBMC; after 14 days expansion): 42-63%
- Cell number after expansion (median) (PBMC; from 10^7 PBMC within 14 days): 3.5×10^7 cells
- Cell number after expansion (range) (PBMC; from 10^7 PBMC within 14 days): 3−4.9×10^7 cells
- Cytokine production and proliferation of expanded T-cell lines (PBMC; upon antigen stimulation): produced high amounts of TH1 cytokines and proliferated upon antigen stimulation
- Cross-reactivity with different clinical isolates of A. fumigatus and C. albicans (C. albicans; clinical isolates): could further confirm this cross-reactivity of the Crf1 p41 epitope
- Cross-reactivity of peptide-specific T-cell clones to C. albicans (C. albicans; inactivated C. albicans yeast, established strain): All p41-specific T-cell clones of all donors recognized and responded to C. albicans
